The text below walks through data of paper PMC6720883, “In Vitro Inhibitory Effects of APINACA on Human Major Cytochrome P450, UDP-Glucuronosyltransferase Enzymes, and Drug Transporters” (Molecules, 2019).

In one series the target is OATP1B3 (Homo sapiens, UniProt Q9NPD5).
In a further series the target is CYP3A4 (Homo sapiens, UniProt P08684). The experiment in a line: Inhibition of CYP3A4-mediated midazolam 1′-hydroxylase in ultrapooled human liver microsomes. The series is classed as in vitro ADME. To be noted: for IC50: CYP3A4 midazolam 1′-hydroxylase. Here is the method: (§1) The inhibitory potentials (IC50 values) of APINACA and typical CYP inhibitors on CYP 1A2, 2A6, 2C8, 2C9, 2C19, 2D6, and 3A4 activities in pooled human liver microsomes were evaluated following our previous method using a cocktail of CYP substrates, followed by LC–MS/MS [43]. […] After 3 min of preincubation at 37 °C, the reaction mixtures were incubated for 15 min at 37 °C with the addition of NADPH in a shaking water bath. The reaction was stopped by adding 100 μL of ice cold methanol containing internal standards (d9-1′-hydroxybufuralol for 1′-hydroxybufuralol, 4′-hydroxydiclofenac, 7-hydroxycoumarin, 1′-hydroxymidazolam, and 4′-hydroxymephenytoin; ^13C2, ^15N-acetaminophen for acetaminophen and N-desethylamodiaquine). The incubation mixtures were centrifuged at 13,000× g for 8 min at 4 °C, and 50 μL of each supernatant was diluted with 50 μL of water. Aliquots (5 μL) of the diluted supernatants were analyzed by LC–MS/MS. All assays were performed in triplicate, and the average values were used for subsequent calculations.
Chain of CYP3A4 (P08684 2-503): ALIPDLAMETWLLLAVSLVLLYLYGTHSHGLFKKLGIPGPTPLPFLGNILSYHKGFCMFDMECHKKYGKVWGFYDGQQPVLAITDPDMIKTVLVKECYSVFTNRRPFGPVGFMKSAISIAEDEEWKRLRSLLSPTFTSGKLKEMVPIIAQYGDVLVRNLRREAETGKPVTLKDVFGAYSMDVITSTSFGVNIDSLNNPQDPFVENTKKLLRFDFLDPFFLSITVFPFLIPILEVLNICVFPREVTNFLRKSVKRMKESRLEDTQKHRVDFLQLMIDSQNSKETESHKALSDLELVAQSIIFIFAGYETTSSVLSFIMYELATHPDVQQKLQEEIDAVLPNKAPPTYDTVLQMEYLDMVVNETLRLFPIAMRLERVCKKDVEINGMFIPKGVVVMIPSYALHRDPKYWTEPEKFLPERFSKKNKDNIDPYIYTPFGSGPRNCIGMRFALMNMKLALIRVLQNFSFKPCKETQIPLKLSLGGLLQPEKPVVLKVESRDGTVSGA
To measure the time-dependent inhibition, human liver microsomes were preincubated with the various concentrations of APINACA (final concentrations of 0.1−100 μM) and NADPH for 30 min at 37 °C. Next, the reaction mixtures were incubated with a seven-CYP probe substrate cocktail or bupropion for 15 min at 37 °C. The control reaction was performed by adding methanol instead of the test compounds.
The column and autosampler temperatures were 40 °C and 4 °C, respectively.
(§2) The data were processed using Mass Hunter software (Agilent Technologies).
(§3) 1.1 (Systat Software, Inc.).

Series [1] has as its target T1, UGT1A9 (Homo sapiens, UniProt O60656).
T1 sequence (O60656 26-530): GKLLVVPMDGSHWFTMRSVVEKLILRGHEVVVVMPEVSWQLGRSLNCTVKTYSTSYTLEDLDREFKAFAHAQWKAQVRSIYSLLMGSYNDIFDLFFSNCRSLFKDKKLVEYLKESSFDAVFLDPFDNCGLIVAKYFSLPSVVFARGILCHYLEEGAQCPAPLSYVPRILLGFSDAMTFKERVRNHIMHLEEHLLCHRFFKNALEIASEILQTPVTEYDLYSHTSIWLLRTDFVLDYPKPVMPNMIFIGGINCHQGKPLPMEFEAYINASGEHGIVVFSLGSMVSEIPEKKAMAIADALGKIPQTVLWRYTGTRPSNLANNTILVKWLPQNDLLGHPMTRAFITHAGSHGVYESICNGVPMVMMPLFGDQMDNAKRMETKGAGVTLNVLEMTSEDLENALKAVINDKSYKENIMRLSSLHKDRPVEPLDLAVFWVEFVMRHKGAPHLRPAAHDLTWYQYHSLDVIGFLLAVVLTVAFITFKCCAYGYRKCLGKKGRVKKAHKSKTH
The experiment in a line: Inhibition of UGT1A9-catalyzed mycophenolic acid glucuronidation in human liver microsomes. The series is classed as in vitro ADME. Further details: […]; tissue Corning Life Sciences. The conditions noted are these: IC50 UGT1A9 mycophenolic acid glucuronidation, pooled human liver microsomes. An excerpt:
(§4) 12.5 (Systat Software, Inc.; San Jose, CA, USA). […] 1.1 (Systat Software, Inc.).
For orientation: Microsomes from liver hold many membrane-bound enzymes, among them those of drug oxidation.

The next series concerns the target CYP1A2 (Homo sapiens, UniProt P05177). Briefly: Inhibition of CYP1A2-mediated phenacetin O-deethylase in ultrapooled human liver microsomes (cocktail, LC-MS/MS). In kind it is in vitro ADME. Here is the method: as §1
(§5) To measure the time-dependent inhibition, human liver microsomes were preincubated with the various concentrations of APINACA (final concentrations of 0.1−100 μM) and NADPH for 30 min at 37 °C. Next, the reaction mixtures were incubated with a seven-CYP probe substrate cocktail or bupropion for 15 min at 37 °C. […]

The target of another series is CYP2A6 (Homo sapiens, UniProt P11509). The experiment in a line: Inhibition of CYP2A6-mediated coumarin 7-hydroxylase in ultrapooled human liver microsomes. In kind it is in vitro ADME. How it is done: as §1, §5
Chain of CYP2A6 (P11509 whole entry): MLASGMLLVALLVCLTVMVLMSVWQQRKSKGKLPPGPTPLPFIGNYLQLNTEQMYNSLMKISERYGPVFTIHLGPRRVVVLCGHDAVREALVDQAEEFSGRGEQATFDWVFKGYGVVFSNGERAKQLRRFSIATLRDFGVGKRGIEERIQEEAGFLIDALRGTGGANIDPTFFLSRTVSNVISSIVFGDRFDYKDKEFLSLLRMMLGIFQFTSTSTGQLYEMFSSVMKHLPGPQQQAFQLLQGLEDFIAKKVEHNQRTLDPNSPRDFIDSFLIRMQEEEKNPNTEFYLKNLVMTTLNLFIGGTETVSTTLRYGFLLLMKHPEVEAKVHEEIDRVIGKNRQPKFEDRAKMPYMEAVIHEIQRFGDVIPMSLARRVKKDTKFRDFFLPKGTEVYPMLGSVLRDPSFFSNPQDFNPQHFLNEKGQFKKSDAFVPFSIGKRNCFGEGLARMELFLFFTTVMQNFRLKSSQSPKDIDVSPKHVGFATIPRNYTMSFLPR
Another series has as its target UGT1A6 (Homo sapiens, UniProt P19224). The experiment in a line: Inhibition of UGT1A6-catalyzed N-acetylserotonin glucuronidation in human liver microsomes. Here is the method:
The inhibitory effect of APINACA and typical UGT inhibitors on UGT1A1, UGT1A3, UGT1A4, UGT1A6, UGT1A9, and UGT2B7 were evaluated following our previous method by LC–MS/MS after incubation of ultrapooled human liver microsomes with a cocktail of UGT substrates. […] The reactions were initiated by adding UDPGA, and the incubation continued for 60 min at 37 °C in a shaking water bath. The reactions were terminated by adding 50 μL of ice-cold acetonitrile containing internal standards (propofol glucuronide for chenodeoxycholic acid 24-acyl-β-glucuronide and mycophenolic acid glucuronide; and meloxicam for SN-38 glucuronide, trifluoperazine glucuronide, N-acetylserotonin β-D-glucuronide, and naloxone 3-β-D-glucuronide). The incubation mixtures were centrifuged at 13,000× g for 8 min at 4 °C. Next, 50 μL of each supernatant of A and B set was mixed, and aliquots (5 μL) were analyzed by LC–MS/MS. All assays were performed in triplicate, and the average values were used in calculations.
To measure the time-dependent inhibition, human liver microsomes were preincubated with the various concentrations of APINACA (final concentrations of 0.1–100 μM) and UDPGA for 30 min at 37 °C. Next, the reaction mixtures were incubated with UGT probe substrate cocktail sets for 60 min at 37 °C. The control reaction was performed by adding methanol instead of the test compounds.
as §3

Series [2] deals with T1, UGT1A9. Briefly: Enzyme kinetic analysis of UGT1A9 inhibition (Dixon plot) in human liver microsomes. In kind it is in vitro ADME. Further details: […]; tissue Corning Life Sciences. Here is the method: The reaction was stopped by adding 100 μL of ice cold acetonitrile containing propofol glucuronide (internal standard), and the mixtures were centrifuged at 13,000× g for 4 min.
as §4

The target of a further series is CYP2B6 (Homo sapiens, UniProt P20813). Briefly: Inhibition of CYP2B6-mediated bupropion hydroxylase in ultrapooled human liver microsomes. In kind it is in vitro ADME. How it is done:
After 3 min of preincubation at 37 °C, the reaction mixtures were incubated with the addition of NADPH in a shaking water bath for 15 min at 37 °C. The reaction was stopped by adding 100 μL of ice cold d9-1′-hydroxybufuralol (internal standard) in methanol.
Next, the reaction mixtures were incubated with a seven-CYP probe substrate cocktail or bupropion for 15 min at 37 °C.
The LC-MS/MS system was comprised of an Agilent 6495 triple quadrupole mass spectrometer coupled with an Agilent 1290 Infinity system (Agilent Technologies, CA, USA). The column and autosampler temperatures were 40 °C and 4 °C, respectively.
as §2, §4

Like-named read-outs stand apart in the source and are kept apart here. Bounds are passed on as bounds.

Chain of CYP2B6 (P20813 whole entry): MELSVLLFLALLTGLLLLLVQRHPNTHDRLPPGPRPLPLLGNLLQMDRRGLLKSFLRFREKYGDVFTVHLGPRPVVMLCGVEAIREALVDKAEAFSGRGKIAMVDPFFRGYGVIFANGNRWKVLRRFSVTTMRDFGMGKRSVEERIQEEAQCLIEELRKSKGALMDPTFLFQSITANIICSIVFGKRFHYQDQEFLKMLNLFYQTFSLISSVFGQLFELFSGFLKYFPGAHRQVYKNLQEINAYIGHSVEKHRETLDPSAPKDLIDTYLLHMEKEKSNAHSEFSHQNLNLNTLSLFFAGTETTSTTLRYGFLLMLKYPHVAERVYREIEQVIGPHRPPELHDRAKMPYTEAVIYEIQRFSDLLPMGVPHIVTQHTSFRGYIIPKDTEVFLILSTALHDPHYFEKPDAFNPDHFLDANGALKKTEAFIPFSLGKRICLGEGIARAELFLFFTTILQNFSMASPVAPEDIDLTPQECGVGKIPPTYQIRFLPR
Chain of UGT1A6 (P19224 27-532): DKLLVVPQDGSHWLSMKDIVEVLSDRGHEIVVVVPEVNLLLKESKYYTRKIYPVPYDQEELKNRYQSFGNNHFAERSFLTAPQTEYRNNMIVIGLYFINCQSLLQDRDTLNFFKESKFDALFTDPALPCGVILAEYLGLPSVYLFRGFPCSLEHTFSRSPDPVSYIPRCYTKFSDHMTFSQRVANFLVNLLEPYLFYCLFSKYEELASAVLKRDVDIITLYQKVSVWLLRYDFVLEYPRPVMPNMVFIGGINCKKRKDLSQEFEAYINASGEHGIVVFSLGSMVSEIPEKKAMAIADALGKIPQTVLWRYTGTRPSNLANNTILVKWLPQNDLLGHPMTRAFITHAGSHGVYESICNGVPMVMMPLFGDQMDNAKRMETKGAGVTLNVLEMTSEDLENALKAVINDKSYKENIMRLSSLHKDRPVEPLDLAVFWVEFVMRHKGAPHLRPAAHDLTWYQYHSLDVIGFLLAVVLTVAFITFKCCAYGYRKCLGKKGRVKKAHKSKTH
Chain of CYP1A2 (P05177 whole entry): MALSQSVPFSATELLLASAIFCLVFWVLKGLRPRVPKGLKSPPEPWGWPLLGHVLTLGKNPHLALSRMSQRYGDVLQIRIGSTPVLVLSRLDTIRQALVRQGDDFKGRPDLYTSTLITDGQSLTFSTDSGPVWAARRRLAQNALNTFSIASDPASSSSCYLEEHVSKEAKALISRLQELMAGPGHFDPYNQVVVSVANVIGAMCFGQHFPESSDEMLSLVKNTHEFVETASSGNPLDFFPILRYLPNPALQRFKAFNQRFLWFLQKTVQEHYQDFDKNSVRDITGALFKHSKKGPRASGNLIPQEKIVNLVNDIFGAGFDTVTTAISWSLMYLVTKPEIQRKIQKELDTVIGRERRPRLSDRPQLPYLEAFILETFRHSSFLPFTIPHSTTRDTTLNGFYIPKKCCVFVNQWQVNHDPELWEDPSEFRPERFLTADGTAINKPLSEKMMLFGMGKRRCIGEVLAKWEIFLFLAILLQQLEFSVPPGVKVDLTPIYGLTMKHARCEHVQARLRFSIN
Chain of OATP1B3 (Q9NPD5 whole entry): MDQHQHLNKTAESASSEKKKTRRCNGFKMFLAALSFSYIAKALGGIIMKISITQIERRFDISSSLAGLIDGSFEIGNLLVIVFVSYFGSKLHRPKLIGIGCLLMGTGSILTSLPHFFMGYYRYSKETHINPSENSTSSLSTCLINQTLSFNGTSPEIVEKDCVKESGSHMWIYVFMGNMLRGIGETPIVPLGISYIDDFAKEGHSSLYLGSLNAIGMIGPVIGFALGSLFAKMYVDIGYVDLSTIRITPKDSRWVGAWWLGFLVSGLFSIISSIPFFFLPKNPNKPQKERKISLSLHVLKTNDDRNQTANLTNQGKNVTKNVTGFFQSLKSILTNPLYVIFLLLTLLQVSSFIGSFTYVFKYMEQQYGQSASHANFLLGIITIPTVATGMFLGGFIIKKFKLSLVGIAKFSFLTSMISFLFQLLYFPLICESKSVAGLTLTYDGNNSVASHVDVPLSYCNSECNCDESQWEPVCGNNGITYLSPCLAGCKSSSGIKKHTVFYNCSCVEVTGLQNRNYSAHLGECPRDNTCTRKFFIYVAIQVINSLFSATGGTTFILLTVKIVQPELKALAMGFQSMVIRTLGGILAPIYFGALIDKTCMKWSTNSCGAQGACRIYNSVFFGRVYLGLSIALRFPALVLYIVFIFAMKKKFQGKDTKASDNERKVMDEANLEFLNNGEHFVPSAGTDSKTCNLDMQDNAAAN

By IC50 is commonly meant the concentration needed to halve the response being measured. The term Ki denotes a dissociation constant, usually derived from enzyme kinetics or from competition with a known ligand. Low readings indicate higher affinity, high ones lower affinity. Consider `CCCCCn1nc(C(=O)NC23CC4CC(CC(C4)C2)C3)c2ccccc21` [APINACA, N-(1-adamantyl)-1-pentyl-1H-indazole-3-carboxamide], for which the IC50 was more than 250 µM against OATP1B3; 16.9 µM at CYP3A4 (IC50 (μM) No Preincubation, 2.5 μM midazolam, no preincubation); 4.2 µM against CYP3A4 (IC50 (μM) With Preincubation, 30-min preincubation with NADPH); 30.7 µM at UGT1A9 [1] (with 30-min preincubation, 30-min preincubation with UDPGA (○)); 32.7 µM at UGT1A9 [1] (without preincubation, 0.2 µM mycophenolic acid); more than 100 µM against CYP1A2. The IC50 on CYP1A2 (read-out: IC50 (μM) With Preincubation, CYP1A2 phenacetin O-deethylase, ultrapooled human liver microsomes, 30-min preincubation with NADPH) was more than 100 µM; at CYP2A6, more than 100 µM; on CYP2A6 (read-out: IC50 (μM) With Preincubation, CYP2A6 coumarin 7-hydroxylase, ultrapooled human liver microsomes, 30-min preincubation with NADPH), more than 100 µM; on UGT1A6 it was more than 100 µM; at UGT1A6 (read-out: IC50 UGT1A6 N-acetylserotonin glucuronidation, with 30-min preincubation, pooled human liver microsomes, 30-min preincubation with UDPGA (○)), more than 100 µM; against CYP2B6, more than 100 µM. The IC50 at CYP2B6 (read-out: IC50 (μM) With Preincubation, CYP2B6 bupropion hydroxylase, ultrapooled human liver microsomes, 30-min preincubation with NADPH) is more than 100 µM. Further, the “fold lower IC50 of CYP3A4 midazolam 1′-hydroxylase after 30-min preincubation than with no preincubation” value at CYP3A4 (NADPH) is listed as “ca. 4 fold”. In addition, affinity on UGT1A9 [2] was put at a Ki of 5.9 µM. Also, the “mode of inhibition of UGT1A9-catalyzed mycophenolic acid glucuronidation” value at UGT1A9 [2] (human liver microsomes, enzyme kinetics study) is recorded as “noncompetitively inhibited”.
